According to patent US20260232767A1, “INTERLEUKIN-23 RECEPTOR ANTAGONIST PEPTIDES FOR USE IN THE TREATMENT OF PSORIASIS” (Janssen Pharmaceutica NV, priority 2023, published 2026):
Like-named read-outs stand apart in the source and are kept apart here.

Assay: Plasma concentrations (PK), Example 1
Type: in vivo, human
Experimental: For QD dosing, peak concentration was defined as any PK sample taken between 0.25 to <6 hours after the last morning dose and trough concentration was at least 20 hours after the last morning dose. For BID dosing, peak concentration was defined as any PK sample taken between 0.25 to <4 hours after the last dose and trough concentration was at least 8 hours after the last dose.

SMILES: CC(=O)NCCCC[C@@H]1NC(=O)[C@H](Cc2c[nH]c3c(C)cccc23)NC(=O)[C@H]([C@@H](C)O)NC(=O)[C@H](CC(N)=O)NC(=O)[C@@H](NC(C)=O)C(C)(C)SSC(C)(C)[C@@H](C(=O)N[C@@H](Cc2ccc(OCCN)cc2)C(=O)N[C@@H](Cc2ccc3ccccc3c2)C(=O)NC2(C(=O)N[C@@H](CCC(=O)O)C(=O)N[C@@H](CC(N)=O)C(=O)N[C@@H](Cc3cccnc3)C(=O)N(C)CC(N)=O)CCOCC2)NC1=O [IL-23 receptor antagonist peptide, Ac-[Pen]*-N-T-[W(7-Me)]-[Lys(Ac)]-[Pen]*-Phe[4-(2-aminoethoxy)]-[2-Nal]-[THP]-E-N-[3-Pal]-Sarc-NH2 (*[Pen]-[Pen]* formdisulfidebond)]
- Number of subjects with plasma concentration below LLOQ (25 mg BID, Week 2, Intermediate): 0
- Number of subjects with plasma concentration below LLOQ (25 mg BID, Week 2, Peak): 0
- Number of subjects with plasma concentration below LLOQ (25 mg BID, Week 2, Trough): 1 (100.0%)
- Number of subjects with plasma concentration below LLOQ (25 mg BID, Week 4, Intermediate): 0
- Number of subjects with plasma concentration below LLOQ (25 mg BID, Week 4, Peak): 0
- Number of subjects with plasma concentration below LLOQ (25 mg BID, Week 4, Trough): 1 (100.0%)
- Number of subjects with plasma concentration below LLOQ (25 mg BID, Week 8, Intermediate): 0
- Number of subjects with plasma concentration below LLOQ (25 mg BID, Week 8, Peak): 1 (50.0%)
- Number of subjects with plasma concentration below LLOQ (25 mg BID, Week 8, Trough): 2 (100.0%)
- Number of subjects with plasma concentration below LLOQ (25 mg BID, Week 12, Intermediate): 0
- Number of subjects with plasma concentration below LLOQ (25 mg BID, Week 12, Peak): 0
- Number of subjects with plasma concentration below LLOQ (25 mg BID, Week 12, Trough): 2 (100.0%)
- Number of subjects with plasma concentration below LLOQ (25 mg BID, Week 16, Intermediate): 0
- Number of subjects with plasma concentration below LLOQ (25 mg BID, Week 16, Peak): 0
- Plasma concentration, Median (25 mg BID, Week 16, Peak): 0.796 ng/mL
- Number of subjects with plasma concentration below LLOQ (25 mg BID, Week 16, Trough): 1 (100.0%)
- Plasma concentration, Median (25 mg BID, Week 16, Trough): 0.134 ng/mL
- Number of subjects with plasma concentration below LLOQ (25 mg QD, Week 1, Intermediate): 0
- Number of subjects with plasma concentration below LLOQ (25 mg QD, Week 1, Peak): 0
- Number of subjects with plasma concentration below LLOQ (25 mg QD, Week 1, Trough, LLOQ 0.02 ng/mL): 3 (100.0%)
- Number of subjects with plasma concentration below LLOQ (25 mg QD, Week 2, Intermediate): 0
- Number of subjects with plasma concentration below LLOQ (25 mg QD, Week 2, Peak): 3 (100.0%)
- Number of subjects with plasma concentration below LLOQ (25 mg QD, Week 2, Trough): 0
- Number of subjects with plasma concentration below LLOQ (25 mg QD, Week 4, Intermediate): 0
- Number of subjects with plasma concentration below LLOQ (25 mg QD, Week 4, Peak): 0
- Number of subjects with plasma concentration below LLOQ (25 mg QD, Week 4, Trough): 3 (100.0%)
- Number of subjects with plasma concentration below LLOQ (25 mg QD, Week 8, Intermediate): 0
- Number of subjects with plasma concentration below LLOQ (25 mg QD, Week 8, Peak): 0)
- Number of subjects with plasma concentration below LLOQ (25 mg QD, Week 8, Trough): 2 (100.0%)
- Number of subjects with plasma concentration below LLOQ (25 mg QD, Week 12, Intermediate): 0
- Number of subjects with plasma concentration below LLOQ (25 mg QD, Week 12, Peak): 0
- Number of subjects with plasma concentration below LLOQ (25 mg QD, Week 12, Trough): 6
- Number of subjects with plasma concentration below LLOQ (25 mg QD, Week 16, Intermediate): 0
- Number of subjects with plasma concentration below LLOQ (25 mg QD, Week 16, Peak): 2
- Plasma concentration, Median (25 mg QD, Week 16, Peak): 0.295 ng/mL
- Number of subjects with plasma concentration below LLOQ (25 mg QD, Week 16, Trough): 2
- Plasma concentration, Median (25 mg QD, Week 16, Trough): 0.057 ng/mL
- Number of subjects with plasma concentration below LLOQ (50 mg QD, Week 2, Intermediate): 0
- Number of subjects with plasma concentration below LLOQ (50 mg QD, Week 2, Peak): 1 (100.0%)
- Number of subjects with plasma concentration below LLOQ (50 mg QD, Week 2, Trough): 0
- Number of subjects with plasma concentration below LLOQ (50 mg QD, Week 12, Intermediate): 0
- Number of subjects with plasma concentration below LLOQ (50 mg QD, Week 12, Peak): 0
- Number of subjects with plasma concentration below LLOQ (50 mg QD, Week 12, Trough): 2 (100.0%)
- Number of subjects with plasma concentration below LLOQ (50 mg QD, Week 16, Intermediate): 0
- Number of subjects with plasma concentration below LLOQ (50 mg QD, Week 16, Peak): 0
- Plasma concentration, Median (50 mg QD, Week 16, Peak): 0.917 ng/mL
- Number of subjects with plasma concentration below LLOQ (50 mg QD, Week 16, Trough): 3 (100.0%)
- Plasma concentration, Median (50 mg QD, Week 16, Trough): 0.089 ng/mL
- Number of subjects with plasma concentration below LLOQ (100 mg BID, Week 16, Intermediate): 0
- Number of subjects with plasma concentration below LLOQ (100 mg BID, Week 16, Peak): 0
- Plasma concentration, Median (100 mg BID, Week 16, Peak): 1.970 ng/mL
- Number of subjects with plasma concentration below LLOQ (100 mg BID, Week 16, Trough): 1 (100.0%)
- Plasma concentration, Median (100 mg BID, Week 16, Trough): 0.451 ng/mL
- Number of subjects with plasma concentration below LLOQ (100 mg QD, Week 12, Intermediate): 1 (33.3%)
- Number of subjects with plasma concentration below LLOQ (100 mg QD, Week 12, Peak): 1 (33.3%)
- Number of subjects with plasma concentration below LLOQ (100 mg QD, Week 12, Trough): 1 (33.3%)
- Number of subjects with plasma concentration below LLOQ (100 mg QD, Week 16, Intermediate): 1 (33.3%)
- Number of subjects with plasma concentration below LLOQ (100 mg QD, Week 16, Peak): 0
- Plasma concentration, Median (100 mg QD, Week 16, Peak): 1.165 ng/mL
- Number of subjects with plasma concentration below LLOQ (100 mg QD, Week 16, Trough): 2 (66.7%)
- Plasma concentration, Median (100 mg QD, Week 16, Trough): 0.132 ng/mL
- Effect of body weight on systemic exposure (baseline body weight subgroups, through Week 16): not consistently evident that body weight has a major impact on systemic exposure
- Drug accumulation (median trough concentrations) (between Week 1 and 16): no apparent drug accumulation
- level at 672 h (human, plasma, oral, 25 mg, 25 mg BID, Week 4, Peak, read-out: Plasma concentration, Geometric Mean): 0.539 ng/mL
- level at 672 h (human, plasma, oral, 25 mg, 25 mg BID, Week 4, Peak, read-out: Plasma concentration, Mean): 0.655 ng/mL
- level at 672 h (human, plasma, oral, 25 mg, 25 mg BID, Week 4, Peak, read-out: Plasma concentration, Median): 0.52 ng/mL
- level at 1344 h (human, plasma, oral, 25 mg, 25 mg BID, Week 8, Intermediate, read-out: Plasma concentration, Geometric Mean): 0.092 ng/mL
- level at 1344 h (human, plasma, oral, 25 mg, 25 mg BID, Week 8, Intermediate, read-out: Plasma concentration, Mean): 0.092 ng/mL
- level at 1344 h (human, plasma, oral, 25 mg, 25 mg BID, Week 8, Intermediate, read-out: Plasma concentration, Median): 0.092 ng/mL
- level at 1344 h (human, plasma, oral, 25 mg, 25 mg BID, Week 8, Peak, read-out: Plasma concentration, Geometric Mean): 0.483 ng/mL
- level at 1344 h (human, plasma, oral, 25 mg, 25 mg BID, Week 8, Peak, read-out: Plasma concentration, Mean): 0.672 ng/mL
- level at 1344 h (human, plasma, oral, 25 mg, 25 mg BID, Week 8, Peak, read-out: Plasma concentration, Median): 0.545 ng/mL
- level at 1344 h (human, plasma, oral, 25 mg, 25 mg BID, Week 8, Trough, read-out: Plasma concentration, Geometric Mean): 0.151 ng/mL
- level at 1344 h (human, plasma, oral, 25 mg, 25 mg BID, Week 8, Trough, read-out: Plasma concentration, Mean): 0.184 ng/mL
- level at 1344 h (human, plasma, oral, 25 mg, 25 mg BID, Week 8, Trough, read-out: Plasma concentration, Median): 0.143 ng/mL
- level at 2016 h (human, plasma, oral, 25 mg, 25 mg BID, Week 12, Trough, read-out: Plasma concentration, Mean): 0.202 ng/mL
- level at 672 h (human, plasma, oral, 25 mg, 25 mg QD, Week 4, Peak, read-out: Plasma concentration, Geometric Mean): 0.469 ng/mL
- level at 672 h (human, plasma, oral, 25 mg, 25 mg QD, Week 4, Peak, read-out: Plasma concentration, Mean): 0.591 ng/mL
- level at 672 h (human, plasma, oral, 25 mg, 25 mg QD, Week 4, Peak, read-out: Plasma concentration, Median): 0.425 ng/mL
- level at 1344 h (human, plasma, oral, 25 mg, 25 mg QD, Week 8, Intermediate, read-out: Plasma concentration, Geometric Mean): 0.168 ng/mL
- level at 1344 h (human, plasma, oral, 25 mg, 25 mg QD, Week 8, Intermediate, read-out: Plasma concentration, Mean): 0.211 ng/mL
- level at 1344 h (human, plasma, oral, 25 mg, 25 mg QD, Week 8, Intermediate, read-out: Plasma concentration, Median): 0.177 ng/mL
- level at 1344 h (human, plasma, oral, 25 mg, 25 mg QD, Week 8, Peak, read-out: Plasma concentration, Geometric Mean): 0.284 ng/mL
- level at 1344 h (human, plasma, oral, 25 mg, 25 mg QD, Week 8, Peak, read-out: Plasma concentration, Mean): 0.443 ng/mL
- level at 1344 h (human, plasma, oral, 25 mg, 25 mg QD, Week 8, Peak, read-out: Plasma concentration, Median): 0.325 ng/mL
- level at 1344 h (human, plasma, oral, 25 mg, 25 mg QD, Week 8, Trough, read-out: Plasma concentration, Geometric Mean): 0.061 ng/mL
- level at 1344 h (human, plasma, oral, 25 mg, 25 mg QD, Week 8, Trough, read-out: Plasma concentration, Mean): 0.068 ng/mL
